For 48 molecules, IC50 and inhibition results are on record in patent publication US10093660B2, “Sulfoximine substituted quinazolines for pharmaceutical compositions” (EVOTEC INTERNATIONAL GMBH, priority 2013, dated 2018).

Sequence of MNK1a (Q9BUB5 other isoform, or with tags, fused parts or gaps): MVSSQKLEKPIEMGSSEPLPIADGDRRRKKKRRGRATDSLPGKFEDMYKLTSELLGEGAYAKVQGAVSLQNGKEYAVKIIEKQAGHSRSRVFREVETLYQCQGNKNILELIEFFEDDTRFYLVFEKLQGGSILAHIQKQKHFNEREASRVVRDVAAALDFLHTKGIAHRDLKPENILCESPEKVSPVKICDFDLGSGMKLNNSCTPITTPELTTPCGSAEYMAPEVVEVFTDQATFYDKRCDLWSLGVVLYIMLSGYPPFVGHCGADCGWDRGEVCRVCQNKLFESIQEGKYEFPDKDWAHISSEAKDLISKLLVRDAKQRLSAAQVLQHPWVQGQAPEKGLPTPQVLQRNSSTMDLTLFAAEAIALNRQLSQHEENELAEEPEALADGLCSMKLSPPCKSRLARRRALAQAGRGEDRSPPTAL
Sequence of MNK2a (Q9HBH9 whole entry): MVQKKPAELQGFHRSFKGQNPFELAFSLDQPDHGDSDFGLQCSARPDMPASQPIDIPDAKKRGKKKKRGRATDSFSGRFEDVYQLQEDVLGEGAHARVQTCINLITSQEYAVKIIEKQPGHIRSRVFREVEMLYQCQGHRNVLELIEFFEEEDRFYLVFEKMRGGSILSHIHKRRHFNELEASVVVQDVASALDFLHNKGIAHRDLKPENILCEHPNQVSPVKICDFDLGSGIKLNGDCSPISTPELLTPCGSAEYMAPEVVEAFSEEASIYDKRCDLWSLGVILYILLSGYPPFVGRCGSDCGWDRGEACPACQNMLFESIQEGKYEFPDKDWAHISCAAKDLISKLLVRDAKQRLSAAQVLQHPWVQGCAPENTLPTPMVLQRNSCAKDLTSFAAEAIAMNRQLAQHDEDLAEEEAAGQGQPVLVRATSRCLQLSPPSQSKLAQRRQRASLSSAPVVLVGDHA

The first test addresses MNK1a (Homo sapiens (Human), UniProt Q9BUB5). In words: MNK1 in vitro kinase assay (Assay 3), Z'-LYTE. The class given is biochemical.
Conditions: not given
The source says: C. MNK1 In Vitro Kinase Assay (Assay 3)
MNK1 Data can be obtained from the MNK1 Z′-LYTE® assay. The MNK1 Z′-LYTE® screening protocol and assay conditions are also described on www.invitrogen.com.
The assay is described as follows:
The Z′-LYTE® biochemical assay employs a fluorescence-based, coupled-enzyme format and is based on the differential sensitivity of phosphorylated and non-phosphorylated peptides to proteolytic cleavage. The peptide substrate is labeled with two fluorophores—one at each end—that make up a FRET pair.
In the primary reaction, the kinase transfers the gamma-phosphate of ATP to a single tyrosine, serine or threonine residue in a synthetic FRET-peptide. In the secondary reaction, a site-specific protease recognizes and cleaves non-phosphorylated FRET-peptides. Phosphorylation of FRET-peptides suppresses cleavage by the Development Reagent. Cleavage disrupts FRET between the donor (i.e., coumarin) and acceptor (i.e., fluorescein) fluorophores on the FRET-peptide, whereas uncleaved, phosphorylated FRET-peptides maintain FRET. A ratiometric method, which calculates the ratio (the Emission Ratio) of donor emission to acceptor emission after excitation of the donor fluorophore at 400 nm, is used to quantitate reaction progress, as shown in the equation below.
The 2×MKNK1 (MNK1) mixture is prepared in 50 mM HEPES pH 7.5, 0.01% BRIJ-35, 10 mM MgCl2, 4 mM MnCl2, 1 mM EGTA, 2 mM DTT.
The Test Compounds are screened in 1% DMSO (final) in the well.
All Peptide/Kinase Mixtures are diluted to a 2× working concentration in the MNK1 Kinase Buffer.
All ATP Solutions are diluted to a 4× working concentration in Kinase Buffer (50 mM HEPES pH 7.5, 0.01% BRIJ-35, 10 mM MgCl2, 1 mM EGTA).
Development Reagent Solution:
The Development Reagent is diluted in Development Buffer
1. 2.5 μL—4× Test Compound
2. 5 μL—2× Peptide/Kinase Mixture
5. 60-minute Kinase Reaction incubation at room temperature
6. 5 μL—Development Reagent Solution
8. 60-minute Development Reaction incubation at room temperature
9. Read on fluorescence plate reader and analyze the data
Control C0%=Average Coumarin emission signal of the 0% Phos. Control F100%=Average Fluorescein emission signal of the 100% Phos. Control F0%=Average Fluorescein emission signal of the 0% Phos. Control Graphing Software
SelectScreen® Kinase Profiling Service uses XLfit from IDBS. […] The activity of MNK proteins can be assayed also by other in vitro kinase assay formats. […] In general, MNK kinase assays can be performed such that a MNK substrate such as a protein or a peptide, which may or may not include modifications as further described below, or others are phosphorylated by MNK proteins having enzymatic activity in vitro. The activity of a candidate agent can then be determined via its ability to decrease the enzymatic activity of the MNK protein. The kinase activity may be detected by change of the chemical, physical or immunological properties of the substrate due to phosphorylation.
The molecule `Cc1cc(N=S2(=O)CCC2)cc2ncnc(Nc3ccc(F)cc3O[C@H]3COC[C@@H]3O)c12` [Example 2.36] returned an IC50 of 51 nM.

Molecule `CO[C@@H]1COC[C@@H]1Oc1cc(F)ccc1Nc1ncnc2cc(N=S3(=O)CCCC3)cc(Cl)c12` (racemic) [Example 1.6] registered an IC50 of 45 nM.

The test is the same for the next values; noted with them: compound concentration of 1 μM, read-out: MNK1 % INH.
As to `Cc1cc(N=S2(=O)CCC2)cc2ncnc(Nc3cccnc3O[C@H]3COC[C@H]3O)c12` (racemic) [Example 2.32], the inhibition at 1 µM came to 97%.

As to `Cc1cc(N=S2(=O)CCCC2)cc2ncnc(Nc3cccnc3O[C@@H]3COC[C@@H]3O)c12` (racemic) [Example 2.3], the inhibition at 1 µM was found to be 102%.

Consider `Cc1cc(N=S2(=O)CCC2)cc2ncnc(Nc3ccc(F)cc3O[C@@H]3COC[C@@H]3O)c12` (single isomer, unassigned) [Example 1.36], for which the inhibition at 1 µM came to 98%.

For `Cc1cc(N=S2(=O)CCCC2)cc2ncnc(Nc3ccc(F)cc3O[C@H]3CNC[C@@H]3O)c12` [Example 3.6], the inhibition at 1 µM is 98%.

`Cc1cc(N=S(C)(=O)C2CC2)cc2ncnc(Nc3ccc(F)cc3O[C@@H]3COC[C@@H]3O)c12` (mixture of isomers) [Example 2.72]: the inhibition at 1 µM was 98%.

In the case of `Cc1cc(N=S2(=O)CCC2)cc2ncnc(Nc3ccc(F)cc3O[C@@H]3COC[C@H]3O)c12` [Example 2.47], the inhibition at 1 µM worked out at 103%.

For `CO[C@@H]1CC[C@@H](Oc2cc(F)ccc2Nc2ncnc3cc(N=S(C)(C)=O)cc(C)c23)CO1` (racemic) [Example 2.63], the inhibition at 1 µM was determined as 102%.

Take `CO[C@@H]1COC[C@H]1Oc1ncccc1Nc1ncnc2cc(N=S(C)(C)=O)cc(C)c12` (racemic) [Example 2.34]: the inhibition at 1 µM was 70%.

As for `Cc1cc(N=S2(=O)CCCC2)cc2ncnc(Nc3cccnc3O[C@H]3COC[C@H]3O)c12` (single isomer, unassigned) [Example 14.4], the inhibition at 1 µM was determined as 103%.

For the molecule `CO[C@@H]1COC[C@H]1Oc1ncccc1Nc1ncnc2cc(N=S3(=O)CCC3)cc(C)c12` (racemic) [Example 2.35], the inhibition at 1 µM came out at 97%.

Turning to `CO[C@H]1COC[C@H]1Oc1ncccc1Nc1ncnc2cc(N=S(C)(C)=O)cc(C)c12` (racemic) [Example 2.1], the inhibition at 1 µM came to 88%.

Consider `Cc1cc(N=S(C)(=O)C2CC2)cc2ncnc(Nc3ccc(F)cc3O[C@H]3COC[C@@H]3O)c12` (stereo partly drawn) [Example 2.77], for which the inhibition at 1 µM was determined as 94%.

For the molecule `Cc1cc(N=S(C)(C)=O)cc2ncnc(Nc3ccc(F)cc3O[C@H]3COC[C@@H]3O)c12` [Example 2.27], the inhibition at 1 µM worked out at 97%.

Another test addresses MNK2a (Homo sapiens (Human), UniProt Q9HBH9). In words: MNK2a in vitro kinase assay (Assay 2), ADP-Glo. The class given is biochemical.
Conditions: not given
The source says:
B. MNK2a In Vitro Kinase Assay (Assay 2)
Take `CO[C@@H]1COC[C@@H]1Oc1cc(F)ccc1Nc1ncnc2cc(N=S(C)(C)=O)cc(C)c12` (racemic) [Example 2.9]: half-maximal inhibition (IC50) was put at 4 nM.

The test is the same for the next values; noted with them: assay 2; read-out: MNK2 IC50.
For the molecule `COc1cc(N=S(C)(=O)c2ccccc2)cc2ncnc(Nc3ccc(F)cc3O[C@H]3COC[C@@H]3O)c12` (stereo partly drawn) [Example 9.28], the IC50 was found to be 13 nM.

Take `CC1CCS(=O)(=Nc2cc(F)c3c(Nc4ccc(F)cc4O[C@@H]4COC[C@@H]4O)ncnc3c2)C1` (mixture of isomers) [Example 2.96]: the IC50 was determined as 9 nM.

Consider `COc1cc(N=S(C)(=O)c2ccncc2)cc2ncnc(Nc3ccc(F)cc3O[C@H]3COC[C@@H]3O)c12` (stereo partly drawn) [Example 9.30], for which the IC50 was 43 nM.

On to `CO[C@H]1COC[C@H]1Oc1cc(F)ccc1Nc1ncnc2cc(N=S(C)(C)=O)cc(C)c12` [Example 14.7], for which the IC50 came out at 7 nM.

Consider `O=S1(=Nc2cc(F)c3c(Nc4ccc(F)cc4O[C@@H]4COC[C@@H]4O)ncnc3c2)CCC(O)CC1` (mixture of isomers) [Example 2.94], for which the IC50 is 39 nM.

Consider `CS(C)(=O)=Nc1cc(Cl)c2c(Nc3ccc(F)cc3O[C@H]3COC[C@@H]3O)ncnc2c1` [Example 1.8], for which the IC50 worked out at 2 nM.

Take `COc1cc(N=S2(=O)CCC2)cc2ncnc(Nc3ccc(Cl)nc3O[C@H]3COC[C@@H]3O)c12` [Example 9.5]: the half-inhibitory concentration (IC50) turned out to be 1 nM.

In the case of `Cc1cc(N=S(C)(C)=O)cc2ncnc(Nc3ccc(F)cc3O[C@H]3C[C@@H]4CO[C@H]3C4)c12` (racemic) [Example 2.99], the IC50 turned out to be 3 nM.

Take `CS(=O)(=Nc1cc(F)c2c(Nc3ccc(F)cc3O[C@H]3COC[C@@H]3O)ncnc2c1)c1ccncc1` (stereo partly drawn) [Example 2.97]: the IC50 worked out at 71 nM.

As to `Cc1cc(N=S(C)(C)=O)cc2ncnc(Nc3ccc(F)cc3O[C@@H]3COC[C@H]3F)c12` (racemic) [Example 2.100], the concentration for half-maximal inhibition (IC50) was determined as 25 nM.

For the molecule `CS(=O)(=Nc1cc(F)c2c(Nc3ccc(F)cc3O[C@@H]3COC[C@@H]3O)ncnc2c1)c1cccnc1` (mixture of isomers) [Example 2.89], the half-maximal inhibitory concentration (IC50) was determined as 51 nM.

On to `CC(C)S(C)(=O)=Nc1cc(F)c2c(Nc3ccc(F)cc3O[C@@H]3COC[C@@H]3O)ncnc2c1` (mixture of isomers) [Example 2.90], for which the concentration for half-maximal inhibition (IC50) stood at 70 nM.

As to `COc1cc(N=S(C)(=O)c2ccncc2)cc2ncnc(Nc3ccc(F)cc3O[C@H]3COC[C@H]3O)c12` (mixture of isomers) [Example 9.27], the half-inhibitory concentration (IC50) came to 86 nM.

For the molecule `CS(=O)(=Nc1cc(F)c2c(Nc3ccc(F)cc3O[C@H]3COC[C@@H]3O)ncnc2c1)c1ccccc1` (stereo partly drawn) [Example 2.86], the concentration for half-maximal inhibition (IC50) amounted to 13 nM.

Turning to `CS(=O)(=Nc1cc(F)c2c(Nc3ccc(F)cc3O[C@H]3COC[C@@H]3O)ncnc2c1)C1CC1` (stereo partly drawn) [Example 2.73], the 50% inhibitory concentration (IC50) is 20 nM.

For the molecule `CS(=O)(=Nc1cc(F)c2c(Nc3ccc(F)cc3O[C@@H]3COC[C@@H]3O)ncnc2c1)C1CC1` (mixture of isomers) [Example 2.91], the IC50 was determined as 106 nM.

In the case of `Cc1cc(N=S(C)(C)=O)cc2ncnc(Nc3cccnc3O[C@H]3COC[C@H]3OCCF)c12` (racemic) [Example 2.26], the half-inhibitory concentration (IC50) stood at 3 nM.

In the case of `COc1cc(N=S2(=O)CCC(O)CC2)cc2ncnc(Nc3ccc(F)cc3O[C@H]3COC[C@H]3O)c12` (mixture of isomers) [Example 9.25], the concentration for half-maximal inhibition (IC50) was determined as 26 nM.

`CS(=O)(=Nc1cc(F)c2c(Nc3ccc(F)cc3O[C@@H]3COC[C@@H]3O)ncnc2c1)c1ccccc1` (mixture of isomers) [Example 2.95]: the half-inhibitory concentration (IC50) was 54 nM.

Regarding `COc1cc(N=S(C)(=O)C2CCOCC2)cc2ncnc(Nc3ccc(F)cc3O[C@H]3COC[C@@H]3O)c12` (stereo partly drawn) [Example 9.11], the half-maximal inhibitory concentration (IC50) is 15 nM.

For the molecule `CO[C@H]1COC[C@H]1Oc1ncccc1Nc1ncnc2cc(N=S3(=O)CCCC3)cc(C)c12` (racemic) [Example 2.2], the IC50 came to 6 nM.

Take `Cc1cc(N=S(C)(C)=O)cc2ncnc(Nc3ccc(F)cc3OC3CCC(O)OC3)c12` (stereo not drawn) [Example 12.2]: the concentration for half-maximal inhibition (IC50) is 3 nM.

Regarding `COc1cc(N=S2(=O)CCC(O)CC2)cc2ncnc(Nc3ccc(F)cc3O[C@H]3COC[C@@H]3O)c12` (stereo partly drawn) [Example 9.26], the concentration for half-maximal inhibition (IC50) was 7 nM.

For the molecule `Cc1cc(N=S2(=O)CCCC2)cc2ncnc(Nc3ccc(F)cc3O[C@H]3CN(C)C[C@@H]3O)c12` [Example 2.61], the IC50 turned out to be 12 nM.

With `Cc1cc(N=S2(=O)CCC2)cc2ncnc(Nc3ccc(F)cc3OC3CCC(O)OC3)c12` (stereo not drawn) [Example 12.1], the IC50 came to 3 nM.

Take `Cc1cc(N=S2(=O)CCCC2)cc2ncnc(Nc3ccc(F)cc3O[C@@H]3COC[C@H]3F)c12` (racemic) [Example 2.101]: the IC50 was 6 nM.

`CS(=O)(=Nc1cc(F)c2c(Nc3ccc(F)cc3O[C@H]3COC[C@@H]3O)ncnc2c1)c1cccnc1` (stereo partly drawn) [Example 2.69]: the 50% inhibitory concentration (IC50) was 22 nM.

Consider `O=S1(=Nc2cc(F)c3c(Nc4ccc(F)cc4O[C@@H]4COC[C@@H]4O)ncnc3c2)CCC1` (racemic) [Example 2.87], for which the half-maximal inhibitory concentration (IC50) came to 10 nM.

Consider `Cc1cc(N=S(C)(C)=O)cc2ncnc(Nc3ccc(F)cc3O[C@@H]3C[C@@H]4CC[C@H]3O4)c12` (racemic) [Example 2.98], for which the IC50 was determined as 6 nM.

With `COc1cc(N=S(C)(=O)C2CC2)cc2ncnc(Nc3ccc(F)cc3O[C@H]3COC[C@@H]3O)c12` (stereo partly drawn) [Example 9.22], the IC50 was 18 nM.

Turning to `CS(=O)(=Nc1cc(F)c2c(Nc3ccc(F)cc3O[C@H]3COC[C@@H]3O)ncnc2c1)C1CCOCC1` (stereo partly drawn) [Example 2.88], the concentration for half-maximal inhibition (IC50) came out at 32 nM.

Regarding `CS(C)(=O)=Nc1cc(C2CC2)c2c(Nc3ccc(F)cc3O[C@H]3COC[C@@H]3O)ncnc2c1` [Example 1.10], the IC50 is 21 nM.
